Data taken from patent publication US7112680B2, “Heterocyclic hydrazones for use as anti-cancer agents” (Austria Wirtschaftsservice Gesellschaft MIT Beschrankter …, priority 2000, dated 2006).
pIC50: −log10 of the molar value.

Assays:
[1] = system: Burkitt's lymphoma (CA 46, ATCC No. CRL 1648); experiment: Inhibition of tumor cell growth, MTT-assay, Burkitt's lymphoma; assay type: cell-based, human; conditions: Table 2, 72 hours, read-out: IC50 Burkitts
Method in brief: (§1)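 Cells seeded at 3,000–10,000 (or ~10,000) per well in 96-well plates; compounds dissolved in DMSO. After treatment, samples fixed, washed and absorbance read on a microplate reader (SRB or MTT read-out according to the assay).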

[2] = system: HeLa (epitheloid cervix carcinoma); experiment: Inhibition of tumor cell growth, SRB-assay, HeLa; assay type: cell-based, human; conditions: Table 2, 72 hours, read-out: IC50 HeLa (converted)
[3] = system: HT-29 (colon adenocarcinoma); experiment: Inhibition of tumor cell growth, SRB-assay, HT-29; assay type: cell-based, human; conditions: Table 2, 72 hours, read-out: IC50 HT-29 (converted)
Method in brief: as §1

[4] = system: CCRF-CEM (acute lymphoblastic leukemia); experiment: Inhibition of tumor cell growth, MTT-assay, CCRF-CEM; assay type: cell-based, human; conditions: Table 2, 72 hours
[5] = system: up to 12 different tumor cells in permeable hoses; experiment: Hollow fibre assay; assay type: in vivo; conditions: mice implanted with tumor cells in permeable hoses
Experimental: Substances Ib-11 and Ib-24 were also tested in the so-called hollow fibre assay for their anti-tumor activity. For this purpose, mice were implanted with up to 12 different tumor cells in permeable hoses and treated with the compounds according to the invention.

MEXF 276L (melanoma) = experiment: Inhibition of tumor cell growth, SRB-assay, MEXF 276L; assay type: cell-based, human; conditions: Table 2, 72 hours, read-out: IC50 MEXF276L
Experimental: The KB cell lines were grown in Dulbecco's modified Eagle's medium (4,5 g glucose/l). To the cultures of KB-C1 cells 1 μg of colchicine/ml, and to the hydroxyurea-resistant KB-HU cells 1 mM hydroxyurea was added every other week. […] 3,000 - 10,000 cells in 200 μl medium were seeded per well into 96-well plates. […] Approximately 10,000 cells per 100 μl were seeded in 96-well plates. […] The substances were dissolved in dimethylsulfoxide (DMSO). […] Subsequently, the samples were fixed, washed, and the absorption was determined by a microplate reader.

In the case of `CC(=NNc1nc2ccccc2o1)c1cc2ccccc2cn1` [Ib-24], the pIC50 [1] was 7.60, the IC50 [2] was 63 nM and the IC50 [3] was 230 nM. For the same molecule, the pIC50 [4] was 6.89, the “anti-tumor activity in hollow fibre assay” value [5] was “exhibit anti-tumor activity” and the pIC50 (MEXF 276L (melanoma)) was 6.19.

With `CC(=NNc1nc2ccccc2[nH]1)c1cnccn1` [Ib-11] the pIC50 [1] was 5.88, the IC50 [2] was 1710 nM and the IC50 [3] was 710 nM. The pIC50 [4] was 6.05, the “anti-tumor activity in hollow fibre assay” value [5] was “exhibit anti-tumor activity” and the pIC50 (MEXF 276L (melanoma)) was 5.67.
